pIC50, pKd, pKi: −log10 of the molar value. Each block holds one compound with its values, some of them ahead of it.
Key:
Beta-secretase 1 = Beta-secretase 1 (Homo sapiens, UniProt P56817); experiment: Inhibition of human BACE-1 after 30 mins by FRET assay
[1] = biological target: T1, Bromodomain-containing protein 4 (Homo sapiens, UniProt O60885); experiment: Binding affinity to human BRD4 bromodomain-1
[2] = biological target: T2, ATPase family AAA domain-containing protein 2 (Homo sapiens, UniProt Q6PL18); experiment: Inhibition of H4K5/8/12/16-Ac-biotin binding to human ATAD2 by Alpha screen assay
T2 sequence (Q6PL18 whole entry): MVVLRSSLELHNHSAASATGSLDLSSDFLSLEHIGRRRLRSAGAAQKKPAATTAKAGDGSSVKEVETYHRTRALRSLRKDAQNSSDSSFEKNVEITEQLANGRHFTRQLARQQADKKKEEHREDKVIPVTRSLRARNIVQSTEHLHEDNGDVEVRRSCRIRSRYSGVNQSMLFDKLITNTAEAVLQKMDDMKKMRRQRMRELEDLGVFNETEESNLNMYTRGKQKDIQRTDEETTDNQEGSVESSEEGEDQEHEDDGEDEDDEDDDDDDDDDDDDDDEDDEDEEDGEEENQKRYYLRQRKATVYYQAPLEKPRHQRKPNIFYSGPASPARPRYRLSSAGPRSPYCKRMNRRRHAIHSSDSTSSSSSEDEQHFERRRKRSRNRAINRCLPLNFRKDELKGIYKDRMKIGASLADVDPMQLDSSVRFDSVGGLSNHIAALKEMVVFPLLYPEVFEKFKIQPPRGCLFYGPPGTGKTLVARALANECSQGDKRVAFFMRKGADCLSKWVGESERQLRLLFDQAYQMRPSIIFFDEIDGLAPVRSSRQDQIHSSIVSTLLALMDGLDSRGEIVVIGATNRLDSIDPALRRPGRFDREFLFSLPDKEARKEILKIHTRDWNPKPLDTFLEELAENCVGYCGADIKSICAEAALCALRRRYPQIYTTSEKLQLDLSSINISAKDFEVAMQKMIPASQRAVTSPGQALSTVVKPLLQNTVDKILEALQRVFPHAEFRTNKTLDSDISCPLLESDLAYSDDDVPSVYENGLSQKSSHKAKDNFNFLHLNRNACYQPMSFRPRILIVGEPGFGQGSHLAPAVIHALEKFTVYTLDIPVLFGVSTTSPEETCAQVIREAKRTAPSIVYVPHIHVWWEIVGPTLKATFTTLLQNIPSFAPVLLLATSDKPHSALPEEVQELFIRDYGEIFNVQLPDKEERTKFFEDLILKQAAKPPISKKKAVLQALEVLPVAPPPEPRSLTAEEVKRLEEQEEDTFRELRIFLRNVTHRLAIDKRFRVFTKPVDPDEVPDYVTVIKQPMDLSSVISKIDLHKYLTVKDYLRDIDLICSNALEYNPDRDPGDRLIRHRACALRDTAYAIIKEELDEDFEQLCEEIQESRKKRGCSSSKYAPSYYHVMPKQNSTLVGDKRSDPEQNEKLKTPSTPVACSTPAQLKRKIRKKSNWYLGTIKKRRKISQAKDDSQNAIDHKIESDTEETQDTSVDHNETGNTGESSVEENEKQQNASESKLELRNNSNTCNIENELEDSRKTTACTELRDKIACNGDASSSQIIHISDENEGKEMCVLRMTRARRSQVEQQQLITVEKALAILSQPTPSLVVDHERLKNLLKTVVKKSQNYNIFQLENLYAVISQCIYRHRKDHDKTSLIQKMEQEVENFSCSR

[3] = biological target: T1, Bromodomain-containing protein 4; experiment: Inhibition of H4K5/8/12/16-Ac-biotin binding to human BRD4 bromodomain-1 by Alpha screen assay
[4] = biological target: T3, 3-dehydroquinate dehydratase (Helicobacter pylori (strain ATCC 700392 / 26695) (Campylobacterpylori), UniProt Q48255); experiment: Inhibition of Helicobacter pylori DHQ2
T3 sequence (Q48255 whole entry): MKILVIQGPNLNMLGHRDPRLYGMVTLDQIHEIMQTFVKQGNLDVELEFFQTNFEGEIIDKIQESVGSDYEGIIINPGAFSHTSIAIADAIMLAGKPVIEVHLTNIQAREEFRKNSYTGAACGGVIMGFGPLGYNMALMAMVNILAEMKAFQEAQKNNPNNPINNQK

CREB-binding protein = CREB-binding protein (Homo sapiens, UniProt Q92793); experiment: Inhibition of H4K5/8/12/16-Ac-biotin binding to human CREBBP by Alpha screen assay
CREB-binding protein, sequence (Q92793 whole entry): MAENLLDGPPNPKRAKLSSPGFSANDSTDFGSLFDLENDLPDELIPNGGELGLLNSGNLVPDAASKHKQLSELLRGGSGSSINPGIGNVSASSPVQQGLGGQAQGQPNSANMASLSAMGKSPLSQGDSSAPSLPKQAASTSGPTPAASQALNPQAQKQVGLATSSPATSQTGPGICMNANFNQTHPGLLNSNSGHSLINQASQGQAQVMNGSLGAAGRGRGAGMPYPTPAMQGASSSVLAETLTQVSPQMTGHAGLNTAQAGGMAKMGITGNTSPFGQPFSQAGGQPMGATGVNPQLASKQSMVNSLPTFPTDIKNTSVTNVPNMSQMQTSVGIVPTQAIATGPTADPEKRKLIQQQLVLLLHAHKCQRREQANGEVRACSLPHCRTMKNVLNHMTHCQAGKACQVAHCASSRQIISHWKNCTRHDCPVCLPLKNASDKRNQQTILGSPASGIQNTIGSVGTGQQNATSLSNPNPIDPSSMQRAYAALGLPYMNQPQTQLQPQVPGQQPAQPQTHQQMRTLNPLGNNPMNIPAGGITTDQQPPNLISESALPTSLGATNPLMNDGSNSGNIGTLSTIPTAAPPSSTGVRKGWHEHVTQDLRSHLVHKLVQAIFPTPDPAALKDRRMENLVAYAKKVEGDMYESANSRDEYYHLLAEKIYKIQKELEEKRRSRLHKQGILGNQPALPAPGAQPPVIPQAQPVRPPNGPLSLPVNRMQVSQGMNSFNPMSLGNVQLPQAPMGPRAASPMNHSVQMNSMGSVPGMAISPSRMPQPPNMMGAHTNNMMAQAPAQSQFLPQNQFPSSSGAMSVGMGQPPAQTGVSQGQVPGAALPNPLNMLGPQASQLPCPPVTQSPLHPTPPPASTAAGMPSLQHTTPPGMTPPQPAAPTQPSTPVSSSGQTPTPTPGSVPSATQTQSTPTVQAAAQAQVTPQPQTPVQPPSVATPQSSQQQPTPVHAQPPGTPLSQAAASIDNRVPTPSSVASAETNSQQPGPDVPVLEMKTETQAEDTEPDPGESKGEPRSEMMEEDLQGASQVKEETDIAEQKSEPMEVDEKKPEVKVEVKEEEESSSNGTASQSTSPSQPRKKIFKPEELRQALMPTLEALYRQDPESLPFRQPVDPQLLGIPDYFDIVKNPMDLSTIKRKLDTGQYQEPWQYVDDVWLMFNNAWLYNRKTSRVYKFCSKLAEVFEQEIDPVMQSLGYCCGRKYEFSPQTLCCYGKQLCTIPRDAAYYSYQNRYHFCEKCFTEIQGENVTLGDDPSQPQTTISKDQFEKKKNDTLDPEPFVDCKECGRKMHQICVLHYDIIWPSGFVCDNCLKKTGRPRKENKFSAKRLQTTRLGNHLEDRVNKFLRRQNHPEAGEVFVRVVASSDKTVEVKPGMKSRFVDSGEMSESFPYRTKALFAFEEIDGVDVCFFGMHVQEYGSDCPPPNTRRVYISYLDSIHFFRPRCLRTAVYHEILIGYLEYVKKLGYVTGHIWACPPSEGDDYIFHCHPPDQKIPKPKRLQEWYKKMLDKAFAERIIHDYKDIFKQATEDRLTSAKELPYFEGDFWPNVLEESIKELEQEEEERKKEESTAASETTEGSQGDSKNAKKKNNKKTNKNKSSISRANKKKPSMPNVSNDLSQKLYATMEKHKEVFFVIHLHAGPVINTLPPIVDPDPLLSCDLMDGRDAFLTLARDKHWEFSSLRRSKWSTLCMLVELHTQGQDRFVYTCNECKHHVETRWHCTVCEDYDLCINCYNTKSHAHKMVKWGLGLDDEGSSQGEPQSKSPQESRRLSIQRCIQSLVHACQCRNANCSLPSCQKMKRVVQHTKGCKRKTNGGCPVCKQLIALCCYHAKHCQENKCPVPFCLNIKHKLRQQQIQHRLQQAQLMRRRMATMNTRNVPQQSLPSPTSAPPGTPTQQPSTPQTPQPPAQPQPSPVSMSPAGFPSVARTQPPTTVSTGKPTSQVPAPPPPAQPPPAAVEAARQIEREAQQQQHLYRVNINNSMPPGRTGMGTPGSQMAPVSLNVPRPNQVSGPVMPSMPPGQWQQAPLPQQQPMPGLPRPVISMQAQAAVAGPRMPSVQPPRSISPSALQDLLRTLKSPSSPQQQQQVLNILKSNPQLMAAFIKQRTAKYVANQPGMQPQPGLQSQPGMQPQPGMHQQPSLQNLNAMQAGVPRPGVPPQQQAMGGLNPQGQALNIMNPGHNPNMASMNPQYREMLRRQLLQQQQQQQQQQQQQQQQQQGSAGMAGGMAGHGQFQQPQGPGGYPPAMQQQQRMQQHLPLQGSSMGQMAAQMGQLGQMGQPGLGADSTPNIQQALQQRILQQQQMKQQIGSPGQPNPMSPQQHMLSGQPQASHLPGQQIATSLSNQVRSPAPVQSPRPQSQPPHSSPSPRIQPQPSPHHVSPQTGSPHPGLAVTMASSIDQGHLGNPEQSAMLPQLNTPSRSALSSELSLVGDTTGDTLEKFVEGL

Beta-secretase 1, sequence (P56817 whole entry): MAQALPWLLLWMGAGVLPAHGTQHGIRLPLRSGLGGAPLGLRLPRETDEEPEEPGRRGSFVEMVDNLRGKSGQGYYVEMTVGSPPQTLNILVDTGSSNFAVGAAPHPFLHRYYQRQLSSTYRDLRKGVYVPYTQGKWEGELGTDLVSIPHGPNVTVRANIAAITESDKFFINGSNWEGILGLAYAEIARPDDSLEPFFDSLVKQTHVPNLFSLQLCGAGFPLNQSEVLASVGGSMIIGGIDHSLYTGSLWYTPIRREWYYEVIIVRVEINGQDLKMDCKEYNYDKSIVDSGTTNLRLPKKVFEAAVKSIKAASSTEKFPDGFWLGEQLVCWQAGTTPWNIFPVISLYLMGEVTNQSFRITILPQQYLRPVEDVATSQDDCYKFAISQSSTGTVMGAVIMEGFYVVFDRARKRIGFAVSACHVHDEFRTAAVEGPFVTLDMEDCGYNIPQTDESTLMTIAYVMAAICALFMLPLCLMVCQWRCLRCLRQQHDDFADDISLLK

Compound: O=C(O)c1cc(-c2ccc(/C=N/Nc3nc(Nc4ccc(F)cc4)nc(N4CCOCC4)n3)o2)ccc1Cl
pIC50 (Beta-secretase 1): 5.15

Compound: CC(=O)N(C)c1cccc(-c2ccc3nnc(C)n3n2)c1
pKd [1]: 5.15

Compound: Cc1ccc(OCCCC(=O)Nc2nc(C)c(C)s2)cc1
pIC50 [2]: 4.64

Compound: COc1cc(/C=C2\SC(=O)N=C2N)ccc1O
pIC50 [3]: 4.66

Further lines, results first:

pKi [4]: 4.72
Compound: CC(C)[C@H](NC(=O)CCCn1c(=O)[nH]c2ccccc2c1=O)C(=O)O

pIC50 (CREB-binding protein): 4.26
Compound: O=C1CNCC(C(=O)NCCn2nc(-c3ccccc3)ccc2=O)N1 (stereo unspecified)

Reference: ChEMBL document CHEMBL4270584, “In silico fragment-based drug design with SEED” (Eur J Med Chem, 2018)
